In paper PMC5095062, “The novel choline kinase inhibitor ICL-CCIC-0019 reprograms cellular metabolism and inhibits cancer cell growth” (Oncotarget, 2016):
Like-named read-outs stand apart in the source and are kept apart here.

Assays:
Plasma pharmacokinetics = format: in vivo, BALB/c mice; details: for AUC / Cmax / half-life: female, BALB/c, mouse, plasma; for half-life: 10 mg/kg
Method: (§1) Plasma pharmacokinetic parameters of ICL-CCIC-0019 were established in female BALB/c mice aged 6–8 weeks (Harlan). Mice were intraperitoneally (i.p.) or perorally (p.o.) administered a single dose of 10 mg/kg and blood collected by cardiac puncture after 5, 15, 30 minutes and 1, 2, 4, 6 and 24 h. For tissue pharmacokinetic studies, HCT116 xenograft bearing mice were administered 10 mg/kg ICL-CCIC-0019 i.p. and blood collected after 5 minutes, 2, 6 and 24 h. Plasma was obtained by centrifugation at 1000 × g for 10 minutes. Samples were snap-frozen and stored at −80°C prior to analysis. Analysis was carried out by Cyprotex Inc. using liquid chromatography–mass spectrometry (LC–MS). For analysis of plasma metabolites, 2-hour samples of tissue pharmacokinetic studies were pooled.

HCT116 xenografts = test: Antitumor activity in HCT116 xenograft model; format: in vivo, BALB/c nude mice; details: 5 mg/kg i.p. once a day on days 1–3, 11 day recovery
Method: All animal experiments were conducted in accordance with the United Kingdom Home Office Guidance on the Operation of The Animals (Scientific Procedures) Act 1986 Amendment Regulations 2012 and within the published guidelines for the welfare and use of animals in cancer research. Xenografts were established in female BALB/c nude mice aged 6–8 weeks (Harlan) by subcutaneous (s.c.) injection of 100 μL HCT116 cells (5 × 10^6 in PBS) on the back of mice. Tumor dimensions were frequently measured by calliper and volumes calculated by the following equation: volume (mm^3) = (π/6) × a × b × c, where a, b, and c represent 3 orthogonal axes of the tumor. When tumor volumes reached approximately 50–100 mm^3 (ca. 10 days post injection), mice were used for subsequent studies.

HCT116 cells [1] = test: Reactive oxygen species assay; format: cell-based, human; details: 10 μM
Method: For ROS measurements, cells were seeded in 96-well plates and treated with indicated ICL-CCIC-0019 (10 μM), pro- and antioxidants (0.25% H2O2 and 5 mM N-acetyl cysteine, NAC; all from Sigma-Aldrich) for indicated times. C400 (Life Technologies) was added at a final concentration of 50 μM and incubated at 37°C for 15 minutes and fluorescence quantified.

Breast cancer cell lines = test: NCI-60 screen; format: cell-based; details: Homo sapiens, read-out: median GI50
Source text: (§2) The compound was then screened against a larger panel of cancer cell lines of diverse histopathologic origin, the NCI-60 screen. […] Mining of publicly available Cancer Genome Atlas (TCGA) expression data identified CHKA amplification and/or mRNA upregulation in 11% of breast, 5–10% of lung, 8% of ovarian, 7% of colorectal and 5% of prostate cancers. Furthermore, CHKA mRNA expression is higher in multiple tumor types compared to normal tissue (Supplementary Figure S1D). The gene was rarely mutated or deleted (0–2.5% mutation rate and < 1% deletion among all tested cancer types). The consistently high expression in a wide variety of tumor types highlights the relevance of CHKA in malignancy and role as a therapeutic target.

[2] = system: non-small lung cancer cell lines; test: NCI-60 screen; format: cell-based; details: Homo sapiens, read-out: median GI50
Source text: as §2

[3] = Tissue pharmacokinetics in HCT116 xenograft bearing mice; format: in vivo, BALB/c nude mice; details: 10 mg/kg i.p.
Method: as §1

[4] = system: NCI-60 panel of cell lines; test: NCI-60 screen (whole panel); format: cell-based; details: Homo sapiens
Source text: as §2

HCT116 cells [5] = test: [3H]acetate uptake; format: cell-based, human
Method: (§3) Enzymatic kinase activity, [^3H]choline to [^3H]PCho conversion and growth inhibition assays was conducted as previously described. [^3H]choline incorporation into soluble and lipid fractions was determined by a pulse-chase experiment. HCT116 cells were seeded at a density of 3 × 10^5 cell per well into 12-well plates and incubated overnight. Cells were treated with 1 or 10 μM ICL-CCIC-0019 for 1 h and pulsed in presence of inhibitor with 18.5 kBq/mL [^3H]choline chloride in 500 μL for 1 additional h. Cells were briefly rinsed with RPMI and incubated with fresh, non-radioactive medium for 6 h. Metabolites were extracted as described elsewhere, but additionally the radioactivity of the choline-containing and chloroform (lipid-containing) fractions was measured. Uptake of radiolabeled metabolite-tracers was measured as described elsewhere. Antiproliferative activity was measured after 72 h continuous exposure to inhibitors by sulforhodamine B (SRB) assay as described elsewhere. Apoptosis was determined using Caspase 3/7 Glo assay (Promega) according to the manufacturer's instructions.

8 cancer cell lines = test: Antiproliferative activity (SRB), initial cell line screen; format: cell-based; details: Homo sapiens
Method: as §3

2 normal cell lines = test: as above; format: cell-based; details: Homo sapiens; normal cells
Method: as §3

HCT116 cells [6] = test: Mitochondrial respiration (Seahorse XF24); format: cell-based, human; details: 10 μM
Method: Extracellular acidification and oxygen consumption rates (ECAR and OCR) were measured in a XF24 extracellular flux analyzer (Seahorse XF24 Extra Cellular Flux Analyzer, North Billerica, MA, USA). Basic XF assay medium was prepared as previously described supplemented with glucose, and the pH adjusted to 7.4 at 37°C. Indicated final concentrations of compounds were obtained by injecting appropriate amounts of compounds dissolved in DMSO or water and diluted in XF assay medium into ports. […] Indicated data points were obtained after 3 min mixing and 2 min wait, followed by 3 min of data collection. Data were normalized to the basal values.

Compound: CN(C)c1cc[n+](CCCCCCCCCCCC[n+]2ccc(N(C)C)cc2)cc1 [ICL-CCIC-0019]
- oral bioavailability (Plasma pharmacokinetics; 10 mg/kg p.o.): limited
- AUC (Plasma pharmacokinetics; ip, 10 mg/kg I.P.): 1.32 µM·h
- Cmax (Plasma pharmacokinetics; ip, 10 mg/kg I.P.): 5300 nM
- half-life (Plasma pharmacokinetics; ip, 10 mg/kg I.P., read-out: t1/2 (1)): 0.0967 h
- half-life (Plasma pharmacokinetics; ip, 10 mg/kg I.P., read-out: t1/2 (2) (converted)): 11 h
- half-life (Plasma pharmacokinetics; po, 10 mg/kg P.O, read-out: t1/2 (1)): 0.167 h
- half-life (Plasma pharmacokinetics; po, 10 mg/kg P.O, read-out: t1/2 (2) (converted)): 56 h
- AUC (Plasma pharmacokinetics; po, 10 mg/kg P.O): 0.05 µM·h
- Cmax (Plasma pharmacokinetics; po, 10 mg/kg P.O): 36 nM
- antitumour activity (HCT116 xenografts): potent antitumour activity
- formation of reactive oxygen species (HCT116 cells [1]): not accompanied by formation of reactive oxygen species
- GI50 (Breast cancer cell lines): 627 nM
- GI50 [2]: 751 nM
- time of peak tumor concentration post injection [3]: 2 h
- GI50 ([4]; read-out: GI50 range across all cell lines): 38.9 to 16200 nM
- GI50 ([4]; read-out: median GI50 across all cell lines): 1120 nM
- increase of acetate uptake (HCT116 cells [5]): 10 fold
- GI50 (8 cancer cell lines; read-out: GI50 range): 380 to 2700 nM
- GI50 (8 cancer cell lines; read-out: mean GI50): 1090 nM
- GI50 (2 normal cell lines): 30000 to 120000 nM
- mitochondrial respiration immediately after adding inhibitor (acute effect) (HCT116 cells [6]): decreased mitochondrial respiration
